Source: patent US20250268903A1, “RXFP1 AGONISTS” (BRISTOL-MYERS SQUIBB COMPANY, priority 2021, published 2025)

Each compound was assayed against T1, human RXFP1 (Homo sapiens, UniProt Q9HBX9) (assay: hRXFP1 HEK293 cAMP assay (HTRF)). Settings: HEK293 cells stably expressing human RXFP1, 30 min at room temperature.
T1 construct: expressed in transfected cells
T1 sequence (Q9HBX9 1-757): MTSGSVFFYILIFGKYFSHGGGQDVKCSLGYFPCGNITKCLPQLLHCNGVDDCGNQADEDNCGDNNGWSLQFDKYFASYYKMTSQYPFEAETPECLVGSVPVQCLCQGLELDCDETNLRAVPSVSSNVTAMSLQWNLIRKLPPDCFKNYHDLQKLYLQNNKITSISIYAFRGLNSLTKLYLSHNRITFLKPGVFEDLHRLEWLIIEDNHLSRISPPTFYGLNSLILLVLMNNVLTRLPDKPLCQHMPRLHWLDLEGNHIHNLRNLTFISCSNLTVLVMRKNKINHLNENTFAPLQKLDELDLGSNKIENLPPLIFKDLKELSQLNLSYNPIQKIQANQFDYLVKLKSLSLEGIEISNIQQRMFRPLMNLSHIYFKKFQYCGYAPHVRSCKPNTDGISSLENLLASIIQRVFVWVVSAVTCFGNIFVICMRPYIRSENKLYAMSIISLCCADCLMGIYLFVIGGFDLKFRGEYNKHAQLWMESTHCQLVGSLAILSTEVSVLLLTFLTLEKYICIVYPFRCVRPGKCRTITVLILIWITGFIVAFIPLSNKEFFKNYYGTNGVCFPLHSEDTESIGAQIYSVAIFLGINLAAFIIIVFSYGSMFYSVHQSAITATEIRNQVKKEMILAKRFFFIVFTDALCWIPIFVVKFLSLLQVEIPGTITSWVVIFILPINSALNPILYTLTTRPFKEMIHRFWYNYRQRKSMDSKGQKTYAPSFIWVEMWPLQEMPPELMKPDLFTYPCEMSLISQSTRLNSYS
Assay type: cell-based
Method in brief: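 Intracellular cAMP was read by HTRF, with potency fitted to a 4-parameter logistic curve. Compound exposure (0.010 nM–50 μM final, 2% DMSO) lasted 30 min at room temperature. Cells were hRXFP1-HEK293 at 1500 per well in IBMX-containing (0.5 mM) HEPES-buffered HBSS.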

| Structure (SMILES) | EC50 |
| --- | --- |
| COc1ccc(C(=O)N(C)CCS(C)(=O)=O)cc1C(=O)N[C@H]1[C@@H](C(=O)Nc2ccc(F)c(C(F)(F)F)c2)[C@H]2CC[C@@H]1/C2=C\C1CC1 [Example 250, N3-[(1R,2R,3S,4R,7Z)-7-(cyclopropyl-methylidene)-3-{[4-fluoro-3-(trifluoromethyl)phenyl]carbamoyl}bicyclo[2.2.1]heptan-2-yl]-N1-(2-methane-sulfonylethyl)-4-methoxy-N1-methylbenzene-1,3-dicarboxamide] | 34.9 nM |
| COc1ccc(C(=O)NCCS(C)(=O)=O)cc1C(=O)N[C@H]1[C@@H](C(=O)Nc2ccc(F)c(C(F)(F)F)c2)[C@H]2CC[C@@H]1/C2=C\C1CC1 [Example 253, N3-[(1R,2R, 3S,4R,7Z)-7-(cyclopropylmethyl-idene)-3-{[4-fluoro-3-(trifluoromethyl)phenyl]carbamoyl}bicyclo[2.2.1]heptan-2-yl]-N1-(2-methanesulfonylethyl)-4-methoxybenzene-1,3-dicarboxamide] | 11.9 nM |
| COc1ccc(C(=O)N2CC[C@H](O)C2)cc1C(=O)N[C@H]1[C@@H](C(=O)Nc2ccc(F)c(C(F)(F)F)c2)[C@H]2CC[C@@H]1/C2=C\C1CC1 [Example 254, (1R,2S,3R, 4R,7Z)-7-(cyclopropyl-methylidene)-N-[4-fluoro-3-(trifluoromethyl)phenyl]-3-{5-[(3S)-3-hydroxypyrrolidine-1-carbonyl]-2-methoxybenzamido} bicyclo[2.2.1] heptane-2-carboxamide] | 54 nM |
| COc1ccc(C(=O)N2CCN(CC(F)F)CC2)cc1C(=O)N[C@H]1[C@@H](C(=O)Nc2ccc(F)c(C(F)(F)F)c2)[C@H]2CC[C@@H]1/C2=C\C1CC1 [Example 255, (1R,2S,3R,4R,7Z)-7-(cyclopropyl-methylidene)-3-{5-[4-(2,2-difluoroethyl)piperazine-1-carbonyl]-2-methoxybenzamido}-N-[4-fluoro-3-heptane-2-(trifluoromethyl)phenyl]bicyclo [2.2.1] carboxamide] | 73.4 nM |
| COc1ccc(C(=O)N2C3CCC2COC3)cc1C(=O)N[C@H]1[C@@H](C(=O)Nc2ccc(F)c(C(F)(F)F)c2)[C@H]2CC[C@@H]1/C2=C\C1CC1 [Example 258, (1R,2S,3R, 4R,7Z)-7-(cyclopropyl-methylidene)-N-[4-fluoro-3-(trifluoromethyl)phenyl]-3-(2-methoxy-5-{3-oxa-8-azabicyclo [3.2.1]octane-8-carbonyl}benzamido) bicyclo[2.2.1] heptane-2-carboxamide] | 32.9 nM |
| COc1ccc(CCCO)cc1C(=O)N[C@H]1[C@@H](C(=O)NCC(C)(C)C)[C@H]2CC[C@@H]1/C2=C\C1CC1 [Example 270, (1R,2S,3R,4R,7Z)-7-(cyclopropylmethyl-idene)-N-(2,2-dimethylpropyl)-3-[5-(3-hydroxypropyl)-2-methoxybenzamido] bicyclo[2.2.1]heptane-2-carboxamide] | 685 nM |
| COc1ccc(CCC(C)(C)O)cc1C(=O)N[C@H]1[C@@H](C(=O)NCC(C)(C)C)[C@H]2CC[C@@H]1/C2=C\C1CC1 [Example 271, (1R,2S,3R,4R,7Z)-7-(cyclopropylmethyl-idene)-N-(2,2-dimethylpropyl)-3-[5-(3-hydroxy-3-methylbutyl)-2-methoxybenzamido] bicyclo[2.2.1]heptane-2-carboxamide] | 264 nM |
| COc1cc2c(cc1C(=O)N[C@H]1[C@@H](C(=O)Nc3ccc(F)c(C(F)(F)F)c3)[C@H]3CC[C@@H]1/C3=C\C(F)(F)F)CCC2 [Example 273, [(1R,2R,3S,4R,7Z)-3-{[4-fluoro~3-(trifluoromethyl)phenyl]carbamoyl}-7-(2,2,2-trifluoroethylidene)bicyclo[2.2.1]heptan-2-yl]-6-methoxy-2,3-dihydro-IH-indene-5-carboxamide] | 3440 nM |
| COc1ccc(C23CCC(C(C)(C)O)(CC2)CC3)cc1C(=O)N[C@H]1[C@@H](C(=O)Nc2ccc(F)c(C(F)(F)F)c2)[C@H]2CC[C@@H]1/C2=C\C1CC1 [Example 275, (1R,2S,3R,4R,7Z)-7-(cyclopropylmethyl-idene)-N-[4-fluoro-3-(trifluoromethyl)phenyl]-3-{5-[4-(2-hydroxypropan-2-yl)bicyclo[2.2.2]octan-1-yl]-2-methoxybenzamido} bicyclo[2.2.1]heptane-2-carboxamide] | 41.8 nM |
| COc1ccc([C@H]2C[C@H](O)C2)cc1C(=O)N[C@H]1[C@@H](C(=O)Nc2ccc(F)c(C(F)(F)F)c2)[C@H]2CC[C@@H]1/C2=C\C1CC1 [Example 277, (1R,2S,3R,4R,7Z)-7-(cyclopropylmethyl-idene)-N-[4-fluoro-3-(trifluoromethyl)phenyl]-3-{2-methoxy-5-[(1r,3r)-3-hydroxycyclobutyl]benzamido} bicyclo [2.2.1]heptane-2-carboxamide] | 7.25 nM |
| COc1ccc(C[C@H]2C[C@H](O)C2)cc1C(=O)N[C@H]1[C@@H](C(=O)Nc2ccc(F)c(C(F)(F)F)c2)[C@H]2CC[C@@H]1/C2=C\C(F)(F)F [Example 278, (1R,2S,3R,4R,7Z)-N-[4-fluoro-3-(trifluoromethyl)phenyl]-3-(2-methoxy-5-{[(1r,3s)-3-hydroxycyclobutyl]methyl}benzamido)-7-(2,2,2-trifluoroethylidene) bicyclo[2.2.1]heptane-2-carboxamide] | 32 nM |

More lines, in order of falling EC50, values ahead:

| EC50 | Structure (SMILES) |
| --- | --- |
| 422 nM | COc1ccc(C(C)(C)CCO)cc1C(=O)N[C@H]1[C@@H](C(=O)Nc2ccc(F)c(C(F)(F)F)c2)[C@H]2CC[C@@H]1/C2=C\C(F)(F)F [Example 272, (1R,2S,3R,4R,7Z)-N-[4-fluoro-3-(trifluoromethyl)phenyl]-3-[5-(4-hydroxy-2-methylbutan-2-yl)-2-methoxybenzamido]-7-(2,2,2-trifluoroethylidene) bicyclo[2.2.1]heptane-2-carboxamide] |
| 367 nM | COc1ccc(C(=O)N2CC3CCC(C2)O3)cc1C(=O)N[C@H]1[C@@H](C(=O)Nc2ccc(F)c(C(F)(F)F)c2)[C@H]2CC[C@@H]1/C2=C\C1CC1 [Example 259, (1R,2S,3R,4R,7Z)-7-(cyclopropylmethylidene)-N-[4-fluoro-3-(trifluoromethyl)phenyl]-3-(2-methoxy-5-{8-oxa-3-azabicyclo[3.2.1]octane-3-carbonyl}benzamido) bicyclo[2.2.1] heptane-2-carboxamide] |
| 244 nM | COc1ccc(C(C)(C)CCO)cc1C(=O)N[C@H]1[C@@H](C(=O)Nc2ccc(F)c(C(F)(F)F)c2)[C@H]2CC[C@@H]1/C2=C\C1CC1 [Example 269, (1R,2S,3R,4R,7Z)-7-(cyclopropyl-methylidene)-N-[4-fluoro-3-(trifluoromethyl)phenyl]-3-[5-(4-hydroxy-2-methylbutan-2-yl)-2-methoxybenzamido] bicyclo[2.2.1] heptane-2-carboxamide] |
| 90.8 nM | COc1ccc(C(=O)N2CCC(S(C)(=O)=O)C2)cc1C(=O)N[C@H]1[C@@H](C(=O)Nc2ccc(F)c(C(F)(F)F)c2)[C@H]2CC[C@@H]1/C2=C\C1CC1 (stereo partly drawn) [Example 257, (1R,2S,3R,4R,7Z)-7-(cyclopropylmethyl-idene)-N-[4-fluoro-3-(trifluoromethyl)phenyl]-3-[5-(3-methanesulfonyl-pyrrolidine-1-carbonyl)-2-methoxybenzamido] bicyclo[2.2.1]heptane-2-carboxamide] |
| 44 nM | COc1ccc(C(=O)N2CC(O)C2)cc1C(=O)N[C@H]1[C@@H](C(=O)Nc2ccc(F)c(C(F)(F)F)c2)[C@H]2CC[C@@H]1/C2=C\C1CC1 [Example 251, (1R,2S,3R,4R,7Z)-7-(cyclopropylmethyl-idene)-N-[4-fluoro-3-(trifluoromethyl)phenyl]-3-[5-(3-hydroxyazetidine-1-carbonyl)-2-methoxybenzamido] bicyclo[2.2.1]heptane-2-carboxamide] |
| 12.6 nM | COc1ccc(C(=O)N2CCC(S(C)(=O)=O)C2)cc1C(=O)N[C@H]1[C@@H](C(=O)Nc2ccc(F)c(C(F)(F)F)c2)[C@H]2CC[C@@H]1/C2=C\C1CC1 (stereo partly drawn) [Example 256] |
| 4.16 nM | COc1ccc(C(=O)N2CCC(S(C)(=O)=O)C2)cc1C(=O)N[C@H]1[C@@H](C(=O)Nc2ccc(F)c(C(F)(F)F)c2)[C@H]2CC[C@@H]1/C2=C\C1CC1 (stereo partly drawn) [Example 252, (1R,2S,3R,4R,7Z)-7-(cyclopropyl-methylidene)-N-[4-fluoro-(trifluoromethyl)phenyl]-3-[5-(3-methanesulfonyl-pyrrolidine-1-carbonyl)-2-methoxybenzamido] bicyclo[2.2.1] heptane-2-carboxamide] |
